Values of other authors in article PMC3792011 (Clinical Pharmacology : Advances and Applications, 2013).
Values joined by “and” are separate entries in the source; they are usually repeats but may differ in a detail not shown here. Identical values can stand only once.

Tests used:
[1] = treatment guidelines
[2] = steady state; bibliographic data

Question: What does the source list for `COC(=O)N[C@H](C(=O)N[C@@H](Cc1ccccc1)[C@@H](O)CN(Cc1ccc(-c2ccccn2)cc1)NC(=O)[C@@H](NC(=O)OC)C(C)(C)C)C(C)(C)C` [ATZ, Atazanavir]?
Answer: Recommended upper limit of plasma concentration (risk of hyperbilirubinemia) [1]: < 1.1 µmol/L; AUC, geometric mean (CV %) [2]: 65.4 (0.1) μmol · h/L; AUC, mean (SD) [2]: 76.4 (50.1) μmol · h/L; Cmax_SS_ATZ, geometric mean (CV %) [2]: 6.2 (0.1) μmol/L; Cmax_SS_ATZ, mean (SD) [2]: 7.4 (4.3) μmol/L; Cmin_SS_ATZ, geometric mean (CV %) [2]: 0.9 μmol/L and 0.9 (0.1) μmol/L; Cmin_SS_ATZ, mean (SD) [2]: 1.2 (1.2) μmol/L; T-half, mean (SD) [2]: 8.6 (2.3) h
